The subject of series [1] is Mus musculus. In words: Anticonvulsant activity in ip dosed Swiss CF1 mouse measured after 4 hrs by scPTZ test. Format: functional.
Series [2] in a line: Lipophilicity, log P of the compound by UV spectroscopy. Format: physicochemical. The following applies: octanol/water.
Series [3] deals with Mus musculus. In words: Anticonvulsant activity in ip dosed Swiss CF1 mouse measured after 4 hrs by MES test. Format: functional.
Series [4] relates to Mus musculus. In words: Behavioral activity in Swiss CF1 mouse assessed as activity score at 100 mg/kg, ip measured after 0.5 hrs post dose by actophotometry. The following applies: in vivo. The series is classed as organism-based. More on the design: dose 100 mg/kg, route intraperitoneal.
A short description of series [5]: Neurotoxicity in ip dosed Swiss CF1 mouse assessed as induction of motor impairment measured after 0.5 hrs by rotorod test. Format: toxicity, organism-based. The settings on record: in vivo, read-out: MTD50. (In general: The rotarod test checks motor coordination on a turning rod.)
Series [6] has as its system Mus musculus. As to the kind of experiment: Anticonvulsant activity in ip dosed Swiss CF1 mouse measured after 0.5 hrs by scPTZ test. Format: functional.
Series [7] relates to Mus musculus. In words: Anticonvulsant activity in ip dosed Swiss CF1 mouse measured after 0.5 hrs by MES test. The series is classed as functional.
For series [8], the system named is Mus musculus. In words: Behavioral activity in Swiss CF1 mouse assessed as activity score at 100 mg/kg, ip measured after 4 hrs post dose by actophotometry. More on the design: dose 100 mg/kg, route intraperitoneal. The settings on record: in vivo. Format: organism-based.
Series [9] in a line: Neurotoxicity in ip dosed Swiss CF1 mouse assessed as induction of motor impairment measured after 4 hrs by rotorod test. Format: toxicity, organism-based. The settings on record: in vivo, read-out: MTD50.
Series [10] concerns Mus musculus. As to the kind of experiment: Hepatotoxicity in Swiss CF1 mouse assessed as induction of fatty changes and inflammations at 300 mg/kg, ip. Format: toxicity, organism-based. The settings on record: in vivo. More on the design: dose 300 mg/kg, route intraperitoneal.
In series [11] the test system is Mus musculus. As to the kind of experiment: Hepatotoxicity in Swiss CF1 mouse assessed as induction of inflammation and necrosis at 300 mg/kg, ip. The series is classed as toxicity, organism-based. The settings on record: in vivo. Also on record: dose 300 mg/kg, route intraperitoneal.
Series [12] has as its system Mus musculus. As to the kind of experiment: Hepatotoxicity in Swiss CF1 mouse assessed as induction of necrosis and fatty changes at 300 mg/kg, ip. The settings on record: in vivo. More on the design: dose 300 mg/kg, route intraperitoneal. Format: toxicity, organism-based.

Active and inactive are the calls of the source. The calls are words filed in the database; no cut-off is given here.

The term logP denotes a log measure of how a compound divides between an organic and an aqueous phase. A lower logP goes with lower lipophilicity. As to `O=C(CNC(=O)c1ccccc1)NN1C(=O)CSC1c1cccc(Cl)c1` (stereo not given), the MED50 entry in the series with Mus musculus [1], with Mus musculus [3] and in the series with Mus musculus [6] was “inactive” each time. The same compound yielded a logP in series [2] of 2.8. The Activity in the series with Mus musculus [4] turned out to be 102.6; in the series on Mus musculus [8], 108.2. Moreover, the TD50 at 0.5 h in series [5] worked out at 30 mg/kg. Also, the MED50 in the series on Mus musculus [7] was 300 mg/kg. In series [9], the TD50 at 4 h came to 30 mg/kg.

`O=C(CNC(=O)c1ccccc1)NN1C(=O)CSC1c1c[nH]c2ccccc12` (stereo not given): the MED50 result in the series on Mus musculus [1], with Mus musculus [3] and with Mus musculus [6] was “inactive” throughout. In [2], this compound gave a logP of 1.7. For the same compound, the figures for the Activity with Mus musculus [4] and with Mus musculus [8] were 102.6 and 120, respectively. Further, the TD50 at 0.5 h in series [5] came to 300 mg/kg. Moreover, the MED50 in the series on Mus musculus [7] is 300 mg/kg. For the same compound, the TD50 at 4 h in [9] is 100 mg/kg.

Take `COc1ccc(C2SCC(=O)N2NC(=O)CNC(=O)c2ccccc2)cc1OC` (stereo not given): the MED50 came to 300 mg/kg in the series on Mus musculus [1], 30 mg/kg in the series on Mus musculus [3], 100 mg/kg in the series with Mus musculus [6] and 30 mg/kg in the series with Mus musculus [7]. The logP in series [2] is 1.85. In addition, the Activity is 42 in the series with Mus musculus [4], 88.6 with Mus musculus [8] and “Non-toxic” in the series with Mus musculus [10].

In the case of `O=C(CNC(=O)c1ccccc1)NN1C(=O)CSC1c1ccc(F)cc1` (stereo not given), the MED50 result in the series with Mus musculus [1], in the series with Mus musculus [3], in the series on Mus musculus [6] and in the series with Mus musculus [7] was “inactive” throughout. For the same compound, in [2], the logP was 2.1. Further, the Activity was 64.6 with Mus musculus [4] and 94 in the series on Mus musculus [8]. Further, the TD50 at 4 h in [9] was found to be 300 mg/kg.

Consider `O=C(CNC(=O)c1ccccc1)NN1C(=O)CSC1c1ccc(Cl)cc1` (stereo not given), for which the MED50 entry with Mus musculus [1] is “inactive”. For the same compound, the logP in series [2] worked out at 2.87. Moreover, the MED50 in the series on Mus musculus [3] turned out to be 100 mg/kg; in the series with Mus musculus [6], 300 mg/kg; in the series with Mus musculus [7] it was 100 mg/kg. In addition, the Activity in the series on Mus musculus [4] is 103.6; in the series with Mus musculus [8] it was 71.6.

Consider `O=C(CNC(=O)c1ccccc1)NN1C(=O)CSC1c1ccccc1` (stereo not given), for which the MED50 in the series on Mus musculus [1] worked out at 300 mg/kg; in the series with Mus musculus [3], 300 mg/kg; in the series with Mus musculus [6] it was 100 mg/kg; with Mus musculus [7], 300 mg/kg. This compound returned a lipophilicity (logP) in series [2] of 1.95. For the same compound, the Activity in the series with Mus musculus [4] was 74; in the series with Mus musculus [8] it was 94.8; with Mus musculus [11], “Toxic”. The TD50 at 0.5 h in series [5] was 100 mg/kg. Further, in series [9], the TD50 at 4 h amounted to 300 mg/kg.

Take `O=C(CNC(=O)c1ccccc1)NN1C(=O)CSC1c1ccccc1Cl` (stereo not given): the MED50 entry in the series on Mus musculus [1] and in the series with Mus musculus [6] was “inactive” throughout. In series [2], this compound gave a logP of 2.3. Moreover, the MED50 in the series with Mus musculus [3] was 300 mg/kg; in the series on Mus musculus [7], 100 mg/kg. Besides, the results for the Activity in the series on Mus musculus [4] and in the series with Mus musculus [8] were 108.8 and 110.8, respectively. In addition, in series [5], the TD50 at 0.5 h stood at 100 mg/kg. Also, in series [9], the TD50 at 4 h was 100 mg/kg.

For `COc1cc(C2SCC(=O)N2NC(=O)CNC(=O)c2ccccc2)cc(OC)c1OC` (stereo not given), the MED50 in the series with Mus musculus [1] is 300 mg/kg; in the series on Mus musculus [3] it was 300 mg/kg; with Mus musculus [6] it was 300 mg/kg; in the series with Mus musculus [7], 100 mg/kg. Moreover, the lipophilicity (logP) in series [2] amounted to 1.65. Also, the Activity in the series on Mus musculus [4] was 92.6; in the series on Mus musculus [8], 101. Besides, the TD50 at 0.5 h in series [5] amounted to 100 mg/kg. Besides, the TD50 at 4 h in [9] was 100 mg/kg.

For `O=C1NC(=O)C(c2ccccc2)(c2ccccc2)N1` [PHENYTOIN], the MED50 with Mus musculus [3] and with Mus musculus [7] was 30 mg/kg in each case. For the same compound, the Activity result in the series on Mus musculus [12] is “Toxic”.

In the case of `CCCC(CCC)C(=O)[O-].[Na+]` [VALPROATE SODIUM], the MED50 entry in the series with Mus musculus [1] is “inactive”. The compound further gave an MED50 in the series with Mus musculus [6] of 300 mg/kg.

For `O=C(CNC(=O)c1ccccc1)NN1C(=O)CSC1c1ccc(O)cc1` (stereo not given), the MED50 entry in the series on Mus musculus [1] and in the series with Mus musculus [6] was “inactive” in each case. The compound also registered a logP in series [2] of 1.75. The MED50 was determined as 100 mg/kg with Mus musculus [3] and 30 mg/kg with Mus musculus [7]. The Activity with Mus musculus [4] is recorded as 38.2; in the series with Mus musculus [8] it was 99.6.

With `COc1ccc(C2SCC(=O)N2NC(=O)CNC(=O)c2ccccc2)cc1` (stereo not given), the MED50 entry with Mus musculus [1] and with Mus musculus [3] was “inactive” each time. Moreover, the logP in [2] is 1.85. Besides, the Activity in the series with Mus musculus [4] worked out at 77.8; in the series with Mus musculus [8] it was 80.2. The TD50 at 0.5 h in series [5] is 300 mg/kg. For the same compound, the results for the MED50 with Mus musculus [6] and in the series on Mus musculus [7] were 100 mg/kg and 300 mg/kg, respectively. For the same compound, the TD50 at 4 h in series [9] amounted to 300 mg/kg.

Source of the values: ChEMBL document CHEMBL3352532, “Microwave assisted synthesis and docking study of N-(2-oxo-2-(4-oxo-2-substituted thiazolidin-3ylamino)ethyl)benzamide derivatives as anticonvulsant agents” (Bioorg Med Chem Lett, 2014).
